Measured values taken from US6057311A, “Benzodiazonine derivatives binding to cholecystokinin or gastrin receptors” (James Black Foundation Limited, priority 1996, dated 2000).

Experiments:
[1] = molecular target: T1, CCKA (Cavia porcellus, UniProt Q63931); assay: CCKA binding assay, guinea pig pancreas membranes ([125I]-CCK8(S)); settings: [125I]-CCK8(S) 200 pM, 0.375 μM PD134,308, 150 min at 21±3° C.; for Ki: pH 7.2, read-out: pKi (Guinea pig pancreas) (converted); for pKi (Guinea pig pancreas): pH 7.2
T1 construct: The pancreatata were removed from male guinea-pigs; from tissue; host or cells: pancreas of male Dunkin Hartley guinea pigs, membranes
T1 sequence (Q63931 1-430): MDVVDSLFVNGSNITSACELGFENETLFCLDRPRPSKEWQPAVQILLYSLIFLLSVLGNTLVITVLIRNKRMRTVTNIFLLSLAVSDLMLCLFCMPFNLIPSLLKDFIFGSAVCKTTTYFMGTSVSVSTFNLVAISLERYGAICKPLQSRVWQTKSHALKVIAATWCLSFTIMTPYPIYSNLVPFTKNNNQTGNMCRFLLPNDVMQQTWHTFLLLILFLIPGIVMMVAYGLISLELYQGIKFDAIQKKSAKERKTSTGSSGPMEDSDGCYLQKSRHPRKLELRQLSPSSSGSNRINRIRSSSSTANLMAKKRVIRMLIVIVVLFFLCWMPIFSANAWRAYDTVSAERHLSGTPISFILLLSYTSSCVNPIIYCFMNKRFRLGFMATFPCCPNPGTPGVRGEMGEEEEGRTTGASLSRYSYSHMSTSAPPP
Protocol: The compounds of the examples were also tested in a CCKA binding assay as follows:
The pancreatata were removed from male guinea-pigs (200-300 g; Dunkin Hartley) and placed in ice-cold HEPES buffer (pH 7.2@21±3° C.). The pancreatata were homogenised in 40 ml ice-cold HEPES buffer using a polytron (Brinkmann, PT10, setting 10) 4×1 second. The homogenate was centrifuged at 39,800 g for 15 min at 4° C. The supernatant was discarded and the pellet re-suspended using a Teflon-in-glass homogeniser in 20 volumes of fresh buffer and re-centrifuged as above. The final pellet was re-suspended using a Teflon-in-glass homogeniser to a tissue concentration of 1 mg.ml^-1 (original wet weight), and filtered through 500 μm pore-size Nytex mesh.
The membranes (400 μl; containing 0.375 μM PD134,308) were incubated for 150 minutes at 21±3° C. in a final volume of 0.5 ml with HEPES buffer containing [^125 I]-CCK8 (S) (50 μl; 200 pM) and competing compound. Total and non-specific binding of [^125 I]-CCK8 (S) were defined using 50 μl of buffer and 50 μl of 100 nM L-364,718 respectively. The assay was terminated by rapid filtration through pre-soaked Whatman GF/B filters using a Brandell Cell Harvester. The filters were washed (3×3 ml) with ice-cold 50 mM Tris HCl (pH 7.4 at 4° C.) and bound radioactivity was determined by counting (1 min) in a gamma counter.

[2] = molecular target: T2, CCKB receptor (Mus musculus, UniProt P56481); assay: radioligand binding assay at the CCKB receptor in mouse cortical membranes ([125I]-CCK8S); settings: [125I]-CCK8S 200 pM, 150 min at 21±3° C.; for Ki: pH 7.2, read-out: pKi (Mouse cortex) (converted); for pKi (Mouse cortex): pH 7.2
T2 construct: The cortex was dissected, weighed and homogenised in 40 ml ice-cold buffer; tissue Charles River (animals); host or cells: cerebral cortex of male CD1 mice, membranes
T2 sequence (P56481 1-453): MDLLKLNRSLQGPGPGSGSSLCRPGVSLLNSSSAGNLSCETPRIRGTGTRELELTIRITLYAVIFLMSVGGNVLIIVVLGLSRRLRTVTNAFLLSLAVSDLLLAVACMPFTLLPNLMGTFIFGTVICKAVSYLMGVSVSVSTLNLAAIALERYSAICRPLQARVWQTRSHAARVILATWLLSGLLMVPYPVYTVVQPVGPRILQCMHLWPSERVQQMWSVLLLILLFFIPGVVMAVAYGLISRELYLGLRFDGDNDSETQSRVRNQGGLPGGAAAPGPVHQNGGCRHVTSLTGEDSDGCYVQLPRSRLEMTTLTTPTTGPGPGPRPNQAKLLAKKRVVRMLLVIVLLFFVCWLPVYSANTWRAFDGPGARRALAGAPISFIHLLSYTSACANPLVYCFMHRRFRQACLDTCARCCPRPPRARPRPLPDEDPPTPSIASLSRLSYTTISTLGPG
Protocol: The compounds of the examples were tested for binding at the CCKB receptor in mouse cortical membranes by means of a radioligand binding assay. The procedure was as follows:
The whole brains from male mice (CD1 22-25 g; Charles River) were removed and placed in ice-cold buffer (pH7.2@21±3° C.) of the following composition (mM); 10 HEPES, 130 NaCl, 4.7 KCl, 5 MgCl2, 1 EDTA and containing 0.25 g.1^-1 bacitracin. The cortex was dissected, weighed and homogenised in 40 ml ice-cold buffer using a Teflon-in-glass homogeniser. The homogenate was centrifuged at 39,800 g for 20 min at 4° C., the supernatant discarded and the pellet resuspended by homogenisation in fresh buffer. The homogenate was recentrifuged (39,800 g; 20 min @4° C.) and the final pellet was resuspended in HEPES buffer to give a tissue concentration of 2 mg.ml^-1 (original wet weight).
The membranes (400 μl) were incubated for 150 min at 21±3° C. in a final volume of 0.5 ml with HEPES buffer containing [^125 I]-CCK8S (0.05 ml; 200 pM NEN 2200 Ci.mmol^-1) and competing compound. Total and non-specific binding of [^125 I]-CCK8S were defined using 0.05 ml of buffer and 0.05 ml of […] L-365,260, respectively. The assay was terminated by rapid filtration through pre-soaked Whatman GF/B filters using a Brandell Cell harvester. The filters were washed (3×3 ml) with ice-cold 50 mM Tris-HCl (pH7.4@4° C.) and bound radioactivity determined by counting (1 min.) in a gamma-counter.

| Molecule | Ki [1] [µM] | Ki [2] [µM] | pKi (Guinea pig pancreas) [1] | pKi (Mouse cortex) [2] |
| --- | --- | --- | --- | --- |
| 1-benzyl-7-hydroxy-4-(3-methylphenyl)carbamyl-2-oxo-2,3,4,5,6,7-hexahydro- 1H-1,4-benzodiazonine (isomer 1) [Example 7] | – | – | 5.8 | 5.0 |
| CC(=O)N1[C@H](CC23CC4CC(CC(C4)C2)C3)C(=O)N(Cc2ccccc2F)c2ccccc2C(=O)C[C@H]1C(=O)NCC(=O)O [Example 59, (3R,5S)-4-acetyl-3-(1-adamantyl)methyl-1-(2-fluorobenzyl)-5-carboxymethyaminocarbonyl-2,7-dioxo-2,3,4,5,6,7-hexahydro-1H-1,4-benzodiazonine] | 10 | 0.1 | – | – |
| Cc1cccc(NC(=O)N2CCC(O)c3ccccc3N(Cc3ccccc3)C(=O)C2)c1 (single isomer, unassigned; isomer 2) [Example 8, 1-benzyl-7-hydroxy-4-(3-methylphenyl)carbamyl-2-oxo-2,3,4,5,6,7-hexahydro-1H-1,4-benzodiazonine (isomer 2)] | 1 | 10 | – | – |
| CC(=O)N1[C@H](CC23CC4CC(CC(C4)C2)C3)C(=O)N(Cc2ccccc2)c2ccccc2C(=O)C[C@H]1C(=O)N(C)CC(=O)O (single isomer, unassigned; isomer 2) [Example 30] | – | – | 5.1 | 5.0 |
| CC(=O)N1[C@H](CC23CC4CC(CC(C4)C2)C3)C(=O)N(Cc2ccc(F)cc2)c2ccccc2C(=O)C[C@H]1C(=O)NCC(=O)O [Example 58, (3R,5S)-4-acetyl-3-(1-adamantyl)methyl-1-(4-fluorobenzyl)-5-carboxymethylaminocarbonyl-2,7-dioxo-2,3,4,5,6,7-hexahydro-1H-1,4-benzodiazonine] | 7.94 | 2 | – | – |
| CC(=O)N1CCC(=O)c2ccccc2N(Cc2ccccc2)C(=O)C1CC12CC3CC(CC(C3)C1)C2 (racemic) [Example 34, (R/S)-4-acetyl-3-(1-adamantyl)methyl-1-benzyl-2,7-dioxo-2,3,4,5,6,7-hexahydro-1H-1,4-benzodiazonine] | 2.51 | 3.98 | – | – |
| Cc1cccc(NC(=O)N2CCC(c3ccccc3)c3ccccc3N(Cc3ccccc3)C(=O)C2)c1 (stereo not drawn) [Example 50, 1-benzyl-7-phenyl-4-(3-methylphenyl)carbamyl-2-oxo-2,3,4,5,6,7-hexahydro-1H-1,4-benzodiazonine] | – | – | 5.9 | 5.8 |
| COC(=O)CNC(=O)[C@@H]1CC(=O)c2ccccc2N(Cc2ccccc2)C(=O)[C@@H](CC23CC4CC(CC(C4)C2)C3)N1C(C)=O [Example 37, (3R,5S)-4-acetyl-3-(1-adamantyl)methyl-1-benzyl-5-methoxycarbonylmethylaminocarbonyl-2,7-dioxo-2,3,4,5,6,7-hexahydro-1H-1,4-benzodiazonine] | 6.31 | 1.58 | – | – |
| O=C(O)CCC(=O)N1CCC(=O)c2ccccc2N(Cc2ccccc2)C(=O)C1CC12CC3CC(CC(C3)C1)C2 (racemic) [Example 33, (R/S)-3-(1-adamantyl)methyl-1-benzyl-4-(2-carboxy)ethylcarbonyl-2,7-dioxo-2,3,4,5,6,7-hexahydro-1H-1,4-benzodiazonine] | 6.31 | 10 | – | – |

Results, then the molecule that gave them:

| Ki [1] [µM] | Ki [2] [µM] | pKi (Guinea pig pancreas) [1] | pKi (Mouse cortex) [2] | Molecule |
| --- | --- | --- | --- | --- |
| 3.98 | 10 | – | – | O=C(OCc1ccccc1)c1cccc(NC(=O)N2CCC(=O)c3ccccc3N(Cc3ccccc3)C(=O)C2)c1 [Example 46] |
| 5.01 | 1 | – | – | CC(=O)N1[C@H](CC23CC4CC(CC(C4)C2)C3)C(=O)N(Cc2ccccc2)c2ccccc2C(=O)C[C@H]1C(=O)O [Example 11, (3R,5S) 4-acetyl-3-[(1-adamantyl)methyl]-1-benzyl-2,7-dioxo-2,3,4,5,6,7-hexahydro-1H-1,4-benzodiazonine-5-carboxylate] |
| 10 | 1 | – | – | CC(=O)N1[C@H](CC23CC4CC(CC(C4)C2)C3)C(=O)N(Cc2ccccc2)c2ccccc2C(=O)C[C@H]1C(=O)NCCC(=O)O [Example 23, (3R,5S)-4-acetyl-3-(1-adamantyl)methyl-1-benzyl-5-(2-carboxy)ethylaminocarbonyl-2,7-dioxo-2,3,4,5,6,7-hexahydro-1H-1,4-benzodiazonine] |
| 1 | 10 | – | – | COc1cccc(NC(=O)N2CCCc3ccccc3N(CC(=O)OC(C)(C)C)C(=O)C2)c1 [Example 55, 1-tert-butyloxycarbonylmethyl-4-(3-methoxyphenyl)carbamyl-2-oxo-2,3,4,5,6,7-hexahydro-1H-1,4-benzodiazonine] |
| 10 | 0.2 | – | – | CC(=O)N1[C@H](CC23CC4CC(CC(C4)C2)C3)C(=O)N(Cc2ccccc2)c2ccccc2C(=O)C[C@H]1C(=O)NCC(=O)O [Example 22, (3R,5S)-4-acetyl-3-(1-adamantyl)methyl-1-benzyl-5-carboxymethylaminocarbonyl-2,7-dioxo-2,3,4,5,6,7-hexahydro-1H-1,4-benzodiazonine] |
| – | – | 5.2 | 5.5 | CC(=O)N1[C@H](CC23CC4CC(CC(C4)C2)C3)C(=O)N(Cc2ccccc2)c2ccccc2C(=O)C[C@H]1C(=O)N(C)CC(=O)O (single isomer, unassigned; isomer 1) [Example 29] |
| – | – | 4.6 | 5.4 | CC(=O)N1[C@H](CC23CC4CC(CC(C4)C2)C3)C(=O)N(Cc2ccccc2)c2ccccc2C(=O)C[C@H]1C(=O)N1CCC[C@H]1C(=O)O (single isomer, unassigned; isomer 2) [Example 28] |
| 10 | 0.2 | – | – | CC(=O)N1[C@H](CC23CC4CC(CC(C4)C2)C3)C(=O)N(Cc2cccc(F)c2)c2ccccc2C(=O)C[C@H]1C(=O)NCC(=O)O [Example 60, (3R,5S)-4-acetyl-3-(1-adamantyl)methyl-1-(3-fluorobenzyl)-5-carboxymethylaminocarbonyl-2,7-dioxo-2,3,4,5,6,7-hexahydro-1H-1,4-benzodiazonine] |
| – | – | 5.0 | 5.0 | CC(=O)N1[C@H](CC23CC4CC(CC(C4)C2)C3)C(=O)N(Cc2ccccc2)c2ccccc2C(=O)C[C@H]1C(=O)N1CCC[C@H]1C(=O)O (single isomer, unassigned; isomer 1) [Example 27] |
